Test results: PubChem BioAssay (NCI)
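Briefly, cells in 96-well plates were exposed to five compound concentrations for 48 h, and endpoints were estimated by linear interpolation. GI50 = concentration required for 50% inhibition of growth. The concentration for full growth arrest is given as TGI.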

Tests used:
Experiment in all cases: NCI tumour cell line growth inhibition, 48 h
[1] = system: CAKI-1 renal
[2] = system: K-562 leukemia
[3] = system: OVCAR-5 ovarian
[4] = system: U251 CNS
[5] = system: SF-268 CNS
[6] = system: SR leukemia
[7] = system: T-47D breast
[8] = system: HOP-62 NSCLC
[9] = system: NCI-H522 lung
[10] = system: MALME-3M melanoma

| Compound | TGI [1] [µM] | TGI [2] [µM] | TGI [3] [µM] | TGI [4] [µM] | TGI [5] [µM] | TGI [6] [µM] | TGI [7] [µM] | TGI [8] [µM] | TGI [9] [µM] | TGI [10] [µM] | GI50 [1] [µM] | GI50 [2] [µM] | GI50 [3] [µM] | GI50 [9] [µM] | GI50 [4] [µM] | GI50 [7] [µM] | GI50 [8] [µM] | GI50 [10] [µM] |
| --- | --- | --- | --- | --- | --- | --- | --- | --- | --- | --- | --- | --- | --- | --- | --- | --- | --- | --- |
| C=CCOC(OCC=C)/C(Br)=C/C | > 100 | > 100 | > 100 | > 100 | 75.2 | > 100 | 72.6 | > 100 | – | – | – | – | – | – | – | – | – | – |
| C=CCN1/C(=C2\SC(=S)N(c3ccc(C)cc3)C2=O)Sc2c1ncn(C)c2=O | > 100 | > 100 | > 100 | > 100 | > 100 | > 100 | – | > 100 | > 100 | – | – | – | – | – | – | – | – | – |
| CC(=O)O[C@H]1C[C@@H](OC(C)=O)[C@@](C)(O)[C@@H]2[C@@H](OC(C)=O)[C@@]3(O)[C@H](/C=C(/CO)[C@H]4O[C@H]4[C@@H](OC(C)=O)[C@@]12C)OC(=O)[C@@H]3C | > 25 | > 25 | > 25 | 21.4 | > 25 | – | > 25 | > 25 | 15.6 | > 25 | – | – | – | – | – | – | – | – |
| CCN(CC)CC1CN=C(N)O1 (stereo unspecified) | > 100 | > 100 | > 100 | > 100 | – | > 100 | > 100 | > 100 | – | – | – | – | – | – | – | – | – | – |
| Cc1cc(S(=O)(=O)Nc2nncn2-c2ccc(Cl)cc2)c(S)cc1Cl | > 10 | > 10 | > 10 | > 10 | > 10 | – | > 10 | > 10 | > 10 | > 10 | – | – | – | – | – | – | – | – |
| O=C(c1cccs1)N1CCCN(C(=O)c2cccs2)C1=S | > 100 | > 100 | > 100 | > 100 | > 100 | – | > 100 | 66.2 | – | > 100 | – | – | – | – | – | – | – | – |
| COC(=O)CNC(=O)CCC(C)[C@H]1CCC2C3C(C[C@H](OC(C)=O)[C@@]21C)[C@@]1(C)CCC2(C[C@H]1C[C@H]3OC(C)=O)OOC1(CC[C@]3(C)C4C[C@H](OC(C)=O)[C@@]5(C)C(CC[C@@H]5C(C)CCC(=O)NCC(=O)OC)C4[C@H](OC(C)=O)C[C@@H]3C1)OO2 (stereo partly specified) | 6.96 | 4.63 | 9.96 | 14 | 16.1 | – | 22.4 | 1.52 | 3.19 | 1.93 | – | – | – | – | – | – | – | – |
| COC(=O)C1CCC(=O)N1C(c1cc(OC)c(OC)c(OC)c1)c1cccc2ccccc12 (stereo unspecified) | – | > 100 | > 100 | > 100 | > 100 | > 100 | > 100 | > 100 | > 100 | – | – | – | – | – | – | – | – | – |
| Cc1cc(Nc2ccc(NS(C)(=O)=O)cc2)c2c(ccc3nccc32)[nH]1 | 96.6 | 34.6 | 75.1 | 29 | 23 | – | 19.5 | 44.5 | 23.4 | 27.8 | – | – | – | – | – | – | – | – |
| CCOC(=O)C(=CNC(=S)N=Nc1c(O)[nH]c2ccccc12)C(=O)OCC | > 100 | > 100 | > 100 | > 100 | > 100 | > 100 | > 100 | > 100 | – | – | – | – | – | – | – | – | – | – |
| CCCCSC1=N/C(=C\c2ccc(N(C)C)cc2)C(=O)N1 | > 100 | > 100 | > 100 | 48.2 | > 100 | – | 81.8 | > 100 | 73.9 | > 100 | – | – | – | – | – | – | – | – |
| CCCCCCCCP(=O)(O)OP(=O)(O)OCC1OC(n2ccc(N)nc2=O)C(O)C1O (stereo unspecified) | > 100 | > 100 | > 100 | > 100 | > 100 | – | > 100 | > 100 | > 100 | > 100 | – | – | – | – | – | – | – | – |
| CC1SC2(CCCCC2)N(NC(=O)CSc2nc3ccc(Cl)cc3c(=O)n2-c2ccccc2)C1=O (stereo unspecified) | > 100 | 73.8 | 58.4 | 31.6 | 54.8 | – | > 100 | 34.3 | 34.1 | 60.6 | – | – | – | – | – | – | – | – |
| CCCCc1ccc(Nc2nc(Cl)c3ccn(C4CC(Oc5ccc(C)cc5)C(COc5ccc(C)cc5)O4)c3n2)cc1 (stereo unspecified) | > 46.4 | > 46.4 | > 31.6 | > 46.4 | > 100 | – | > 46.4 | > 100 | 30.7 | 32.9 | – | – | – | – | – | – | – | – |
| CCN(CC)CCn1c(=O)c2c(C)c3oc4ccccc4oc3c(C)c2c1=O | > 100 | > 100 | > 100 | > 100 | > 100 | – | – | > 100 | > 100 | > 100 | – | – | – | – | – | – | – | – |
| CCOC(=O)/C=C(\C(=O)OCC)n1cc(Cl)c(=O)n(CC(=O)OCC)c1=O | 5.27 | 4.23 | 33.3 | 29.6 | 32.7 | – | 4.12 | 33.7 | 1.85 | 3.85 | – | – | – | – | – | – | – | – |
| COC(=O)[C@]1(c2ccc(N(C)C)cc2OC)C[C@@H]2CCCN(CCc3c1[nH]c1ccccc31)C2 | > 100 | 37.7 | > 100 | 36 | 71.2 | – | – | > 84.9 | 21.8 | 33.2 | – | – | – | – | – | – | – | – |

| Compound | TGI [1] [µM] | TGI [2] [µM] | TGI [3] [µM] | TGI [4] [µM] | TGI [5] [µM] | TGI [6] [µM] | TGI [7] [µM] | TGI [8] [µM] | TGI [9] [µM] | TGI [10] [µM] | GI50 [1] [µM] | GI50 [2] [µM] | GI50 [3] [µM] | GI50 [9] [µM] | GI50 [4] [µM] | GI50 [7] [µM] | GI50 [8] [µM] | GI50 [10] [µM] |
| --- | --- | --- | --- | --- | --- | --- | --- | --- | --- | --- | --- | --- | --- | --- | --- | --- | --- | --- |
| C=CC(C)C1(CCCOCc2ccccc2)C(=S)N2CCC3(CC24CCCC14)OCCO3 (stereo unspecified) | > 100 | > 100 | > 100 | > 100 | > 100 | – | – | – | 64.4 | > 100 | – | – | – | – | – | – | – | – |
| O=c1[nH]nc(Nc2ccccc2)c2nnn(C3CCCCC3)c12 | > 100 | > 100 | > 100 | > 100 | – | > 100 | – | > 100 | – | > 100 | – | – | – | – | – | – | – | – |
| CCCCCCCCCCCCCC[n+]1ccc(C(N)=O)cc1 | 15 | > 100 | 4.12 | 1.87 | – | – | 14 | 3.45 | 4.68 | 7.72 | 3.04 | 2.31 | 1.2 | 1.61 | 0.538 | 3.13 | 1.51 | 2.27 |
| CNC(=O)SCC(NC(=O)CCC(N)C(=O)O)C(=O)NCC(=O)O (stereo unspecified) | > 100 | > 100 | > 100 | > 100 | > 100 | – | – | > 100 | > 100 | > 100 | – | – | – | – | – | – | – | – |
| CC(C(=O)c1ccncc1)c1ccccn1 (stereo unspecified) | > 100 | > 100 | > 100 | > 100 | > 100 | – | > 100 | > 100 | > 100 | > 100 | – | – | – | – | – | – | – | – |
| Nc1ccc2ccc(N3CCNCC3)nc2n1 | > 100 | > 100 | > 100 | > 100 | > 100 | > 100 | – | > 100 | > 100 | > 100 | – | – | – | – | – | – | – | – |
| COc1ccc(-c2ncn(C[Si](C)(C)C)c2-c2ccc(OC)cc2)cc1 | 21.9 | 10.6 | 18.3 | 20.7 | 28.7 | 66.2 | – | 30.7 | 16.2 | 23.7 | – | – | – | – | – | – | – | – |
| Cc1ccc(S(=O)(=O)C2=c3nc4ccccc4cc3=C3C(=O)c4ccccc4C(=O)C32)cc1 (stereo unspecified) | > 100 | > 100 | > 100 | > 100 | > 100 | > 100 | – | > 100 | > 100 | > 100 | – | – | – | – | – | – | – | – |
| COc1cc(C2C3=C(CCCC3=O)N(c3ccc(C)cc3)C3=C2C(=O)CCC3)c([N+](=O)[O-])cc1OC | > 100 | > 100 | > 100 | > 100 | > 100 | > 100 | – | – | – | – | – | – | – | – | – | – | – | – |
| C/C=C(\C)C(=O)O[C@@H]1CC(C)(C)CC2C3=CCC4[C@]56CC[C@](O)(OC5)C(C)(C)C6CC[C@@]4(C)C3(C)CC[C@]21C(=O)O (stereo partly specified) | > 100 | > 100 | > 100 | > 100 | > 100 | – | > 100 | > 100 | > 100 | > 100 | – | – | – | – | – | – | – | – |
| CCCCCCCCCCCCCCCCCCNC(=S)/N=C/c1c(O)c2ccccc2[nH]c1=O | 31.6 | – | 31.2 | 40.5 | 29.5 | – | 90.5 | 33 | – | – | – | – | – | – | – | – | – | – |
| O=C(Nc1ccccc1Cl)c1ccc([N+](=O)[O-])cc1 | > 100 | > 100 | – | > 100 | > 100 | – | – | > 100 | > 100 | > 100 | – | – | – | – | – | – | – | – |
| Cc1nc2c(cc1OCc1ccccc1)C(=O)C1=C(C2=O)C2OC(=O)CC2OC1(C)C (stereo unspecified) | 1.67 | – | 2.16 | 2.14 | – | – | 1.23 | 2.87 | 0.387 | 2.25 | – | – | – | – | – | – | – | – |
| CC(C)C(=O)/C=C/S/C=C/C(=O)C(C)C | 10.7 | – | 22.1 | 70.6 | > 100 | – | 65.7 | 86.9 | 3.62 | 25.6 | – | – | – | – | – | – | – | – |
| OC12c3ccccc3C1CCCCCCCCCC21OCCO1 (stereo unspecified) | > 100 | > 100 | > 100 | > 100 | > 100 | – | – | > 100 | > 100 | > 100 | – | – | – | – | – | – | – | – |
| COc1c(Br)cc2ccccc2c1-c1c(OC)c(Br)cc2ccccc12 | > 100 | > 100 | > 100 | > 100 | > 100 | – | > 100 | > 100 | > 100 | – | – | – | – | – | – | – | – | – |
| CC(=O)C(C(C)=O)[C@@H]1OC(C)(C)O[C@@H]1[C@H]1COC(C)(C)O1 | > 100 | > 100 | > 100 | > 100 | > 100 | > 100 | – | > 100 | 81.2 | 52.4 | – | – | – | – | – | – | – | – |
